Experiment [1] deals with Vasopressin V1 receptor (Rattus norvegicus) (UniProt P48974+P30560). Kind of experiment: Dose that reduces blood pressure response in rats. In kind it is functional.
Experiment [2] has as its target Vasopressin V2 receptor (Rattus norvegicus) (UniProt Q00788). Put plainly: Dose that reduces urine flow in water-loaded rats. The format is functional.
Experiment [3] can be described thus: Ratio of antidiuretic V2 effective dose to that of vasopressin V1 effective dose. The format is functional, Urine.
Experiment [4] addresses Vasopressin V2 receptor (Rattus norvegicus) (UniProt Q00788). Put plainly: Antidiuretic activity in water-loaded rats.

The structures appear in SMILES notation. *1 amine or outer side, *2 acyl side, *3 side chain or, on linkers, in order; H or OH if unused. Where a SMILES comes first, the peptide text is derived from it. Bridges are numbered along the chain shown (N, C = ends). [ ]: non-standard residue; d: D form. NMeY = CN[C@@H](Cc1ccc(O)cc1)C(=O)O; X1 = O=C(CC1(S[*:2])CCCCC1)[*:1]

Chain of Vasopressin V2 receptor (Rattus norvegicus) (Q00788 whole entry): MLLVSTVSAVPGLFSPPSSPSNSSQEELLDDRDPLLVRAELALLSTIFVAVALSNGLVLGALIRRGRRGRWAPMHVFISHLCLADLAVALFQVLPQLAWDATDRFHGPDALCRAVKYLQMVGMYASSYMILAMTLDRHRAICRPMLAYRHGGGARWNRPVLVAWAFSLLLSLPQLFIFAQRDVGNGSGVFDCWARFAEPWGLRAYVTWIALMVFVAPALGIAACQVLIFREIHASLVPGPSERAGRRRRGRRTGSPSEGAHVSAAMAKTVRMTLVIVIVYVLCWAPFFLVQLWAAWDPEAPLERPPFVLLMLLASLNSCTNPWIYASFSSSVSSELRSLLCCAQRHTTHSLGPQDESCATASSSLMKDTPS
Chain of Vasopressin V1 receptor (Rattus norvegicus) (P30560 whole entry, looked up): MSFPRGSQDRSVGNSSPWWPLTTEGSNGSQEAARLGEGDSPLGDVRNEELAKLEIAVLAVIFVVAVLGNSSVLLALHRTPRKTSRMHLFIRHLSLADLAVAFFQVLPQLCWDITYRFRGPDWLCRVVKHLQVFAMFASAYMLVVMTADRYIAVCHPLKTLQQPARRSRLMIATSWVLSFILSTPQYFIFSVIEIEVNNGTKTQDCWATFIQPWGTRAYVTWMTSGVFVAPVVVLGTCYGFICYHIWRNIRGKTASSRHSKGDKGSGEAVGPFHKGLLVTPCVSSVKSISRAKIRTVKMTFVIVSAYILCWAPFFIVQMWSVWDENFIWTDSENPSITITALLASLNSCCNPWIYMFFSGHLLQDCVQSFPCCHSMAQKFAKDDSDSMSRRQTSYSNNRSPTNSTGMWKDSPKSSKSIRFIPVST
Chain of Vasopressin V1 receptor (Rattus norvegicus) (P48974 whole entry, looked up): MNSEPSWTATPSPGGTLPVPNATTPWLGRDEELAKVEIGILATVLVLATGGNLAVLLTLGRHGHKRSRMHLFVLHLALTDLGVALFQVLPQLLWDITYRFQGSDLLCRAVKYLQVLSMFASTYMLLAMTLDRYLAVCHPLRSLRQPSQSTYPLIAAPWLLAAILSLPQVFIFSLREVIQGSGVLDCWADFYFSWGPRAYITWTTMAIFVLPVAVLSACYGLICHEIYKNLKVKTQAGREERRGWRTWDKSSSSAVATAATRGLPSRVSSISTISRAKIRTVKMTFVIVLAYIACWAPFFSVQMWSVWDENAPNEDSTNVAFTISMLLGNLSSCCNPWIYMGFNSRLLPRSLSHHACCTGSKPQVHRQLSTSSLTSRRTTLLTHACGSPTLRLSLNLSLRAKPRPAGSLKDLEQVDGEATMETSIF

On to `CN1C(=O)CC2(CCCCC2)SSC[C@H](C(=O)N2CCC[C@H]2C(=O)N[C@@H](CCCN=C(N)N)C(=O)N[C@@H](CCCN=C(N)N)C(N)=O)NC(=O)[C@@H](CC(N)=O)NC(=O)[C@H](CCC(N)=O)NC(=O)[C@@H](Cc2ccccc2)NC(=O)[C@@H]1Cc1ccc(O)cc1`, for which the Effective dose in experiment [1] was 0.12 nM/kg; in experiment [2], 18 nM/kg. For the same compound, the Ratio in experiment [3] is on record as approximately 150.
On to `CC(C)[C@H](NC(=O)[C@H](CCCN=C(N)N)NC(=O)[C@@H]1CCCN1C(=O)[C@H]1CSSC(C)(C)CC(=O)N(C)[C@@H](Cc2ccc(O)cc2)C(=O)N[C@H](Cc2ccccc2)C(=O)N[C@@H](CCC(N)=O)C(=O)N[C@H](CC(N)=O)C(=O)N1)C(N)=O`, for which, in experiment [1], the Effective dose was 0.6 nM/kg. This compound gave an Antidiuretic activity in experiment [4] of 0.039 units/mg.
In turn, `CN1C(=O)CC(C)(C)SSC[C@H](C(=O)N2CCC[C@H]2C(=O)N[C@@H](CCCN=C(N)N)C(=O)N[C@@H](CCCN=C(N)N)C(N)=O)NC(=O)[C@@H](CC(N)=O)NC(=O)[C@H](CCC(N)=O)NC(=O)[C@@H](Cc2ccccc2)NC(=O)[C@@H]1Cc1ccc(O)cc1` had an Antidiuretic activity in experiment [4] of 0.083 units/mg.
In experiment [1], `CN1C(=O)CC(C)(C)SSC[C@H](C(=O)N2CCC[C@H]2C(=O)N[C@@H](CCCN=C(N)N)C(=O)N[C@@H](Cc2ccc(O)cc2)C(N)=O)NC(=O)[C@@H](CC(N)=O)NC(=O)[C@H](CCC(N)=O)NC(=O)[C@@H](Cc2ccccc2)NC(=O)[C@@H]1Cc1ccc(O)cc1` registered an Effective dose of 0.38 nM/kg. This compound also showed an Antidiuretic activity in experiment [4] of 0.029 units/mg.
In the case of `CN1C(=O)CC2(CCCCC2)SSC[C@H](C(=O)N2CCC[C@H]2C(=O)N[C@@H](CCCN=C(N)N)C(=O)NCC(=O)NCCN)NC(=O)[C@@H](CC(N)=O)NC(=O)[C@H](CCC(N)=O)NC(=O)[C@@H](Cc2ccccc2)NC(=O)[C@@H]1Cc1ccc(O)cc1`, the results for the Effective dose in experiment [1] and in experiment [2] were 0.27 nM/kg and 16 nM/kg, respectively.
Regarding `C[C@H](NC(=O)[C@H](CCCN=C(N)N)NC(=O)[C@@H]1CCCN1C(=O)[C@H]1CSSC2(CCCCC2)CC(=O)N(C)[C@@H](Cc2ccc(O)cc2)C(=O)N[C@H](Cc2ccccc2)C(=O)N[C@@H](CCC(N)=O)C(=O)N[C@H](CC(N)=O)C(=O)N1)C(N)=O`, the Effective dose in experiment [1] turned out to be 0.13 nM/kg; in experiment [2], 77 nM/kg.
On the same counts, the results for `C[C@H](O)[C@H](NC(=O)[C@H](CCCN=C(N)N)NC(=O)[C@@H]1CCCN1C(=O)[C@H]1CSSC2(CCCCC2)CC(=O)N(C)[C@@H](Cc2ccc(O)cc2)C(=O)N[C@H](Cc2ccccc2)C(=O)N[C@@H](CCC(N)=O)C(=O)N[C@H](CC(N)=O)C(=O)N1)C(N)=O` are 0.22 nM/kg and 45 nM/kg.
`CN1C(=O)CC2(CCCCC2)SSC[C@H](C(=O)N2CCC[C@H]2C(=O)N[C@@H](CCCN=C(N)N)C(=O)NCC(N)=O)NC(=O)[C@H](CC(N)=O)NC(=O)[C@H](CCC(N)=O)NC(=O)[C@H](Cc2ccccc2)NC(=O)[C@@H]1Cc1ccc(O)cc1` ([NMeY]FQN[dC]PRG-NH2; linker N-5 via X1) showed an Effective dose in experiment [1] of 0.16 nM/kg. The same compound yielded an Antidiuretic activity in experiment [4] of 0.31 units/mg.

(Values after ChEMBL document CHEMBL1125295, “Synthesis and some pharmacological properties of potent and selective antagonists of the vasopressor (V1-receptor) response to arginine-vasopressin” (J Med Chem, 1992).)
